From patent US8563683B2, “Synthetic lung surfactant and use thereof” (University of Rochester, priority 2006, dated 2013)

Experiments:
DEPN-8 = experiment: Plasmon resonance (Biacore 3000) binding of lipid liposomes to peptide film; conditions: DEPN-8 liposomes over peptide film on CM5 chip, 37° C.; read-out: dissociation constant KD (koff/kon)
Experimental: (§1) Super Mini-B peptide was also characterized in terms of its binding (association) affinity for lipids by plasmon resonance using a Biacore 3000 system (Biacore, Uppsala, Sweden). Peptide self-films were chemically-linked using a CM5 sensor chip (BR-1000-14, research grade), and lipid liposomes in running buffer were flowed over the chip to determine the degree of specific lipid association with the peptide film at 37° C. The off and on rates and dissociation constant KD (KD=koff/kon) were calculated by BIAevaluation Software Version 4.1.

[1] = target: dipalmitoyl phosphatidylcholine (DPPC); experiment: as above; conditions: DPPC liposomes over peptide film on CM5 chip, 37° C.; read-out: dissociation constant KD (koff/kon)
Experimental: as §1

[2] = Surface activity on pulsating bubble surfactometer (minimum surface tension); assay type: physicochemical; conditions: 37° C., 20 cycles/min, 50% area compression, lipid […] except SLM (1.0 mg/ml)
Experimental: Surfactant compositions were formulated using various molar or wt ratios of lipid analogs or naturally occurring lipids, with the addition of native lung surface proteins or synthetic peptides, and optionally a saturated free fatty acid in the indicated wt percentage based on the total weight of the intermediate lipid formulation. Surfactant compositions were dispersed in 0.15M NaCl+2 mM CaCl2 and placed in a sample chamber mounted on the pulsator unit of a bubble surfactometer. All surfactants were studied at a lipid concentration of 2.5 mg/ml, and in addition a mixture of synthetic ester-linked phospholipids (SLM) plus Super Mini-B was studied at a lipid concentration of 1 mg/ml.
A tiny air bubble was formed and pulsated between maximum and minimum radii of 0.55 and 0.4 mm, respectively, while the pressure drop across the air-water interface of the bubble was measured with a precision transducer. Surface tension was calculated from the measured pressure drop at minimum radius (0.4 mm) from the Laplace equation (Enhorning, “Pulsating Bubble Technique for Evaluation of Pulmonary Surfactant,” J Appl Physiol 43:198-203 (1977); Hall et al., “Approximations in the Measurement of Surface Tension with the Oscillating Bubble Surfactometer,” J Appl Physiol 75:468-477 (1993), each of which is hereby incorporated by reference in its entirety).
The high surface activity of synthetic lung surfactants containing DEPN-8 or 9:1 DEPN-8:PG-A or 9:1 DEPN-8:PG-B plus 1.5% by weight of Mini-B, FK20, or F4K is shown in Table 1. Activity is also shown for mixtures containing two glycerophospholipids found in endogenous lung surfactant, 8:2 (molar ratio) dipalmitoyl phosphatidylcholine (DPPC) and palmitoyl-oleoyl phosphatidylglycerol (POPG), with or without added synthetic peptides. Also studied is a synthetic lipid mixture containing 16:10:6:1:2 (by weight) DPPC, palmitoyl-oleoyl-phosphatidylcholine (POPC), POPG, palmitoyl-oleoyl-phosphatidylethanolamine (POPE), and cholesterol combined with Super Mini B (SEQ ID NO: 13). The surface activity of DEPN-8+1.5% bovine SP-B/C (mixture of bovine surfactant proteins B/C purified on a column from extracted calf lung surfactant) is additionally shown as a positive control. As described in the preceding paragraph, the surface activity measurements in Table 1 were obtained with a pulsating bubble surfactometer in vitro. Measurements of surface activity on this instrument reflect the combined effects of adsorption and dynamic film compression at a cycling rate (20 cycles/min), temperature (37° C.), and area compression (50% compression from maximum to minimum area) relevant for the mammalian lungs in vivo (Notter, Lung Surfactants: Basic Science and Clinical Applications, Marcel Dekker, Inc, New York (2000); Enhorning, “Pulsating Bubble Technique for Evaluation of Pulmonary Surfactant,” J Appl Physiol 43:198-203 (1977); Notter et al., “Pulmonary Surfactant: Physical Chemistry, Physiology and Replacement,” Rev Chem Eng 13:1-118 (1997), each of which is hereby incorporated by reference in its entirety). Prior publications have shown that assessments of surface activity on the bubble apparatus correlate well with the physiological activity of exogenous surfactants in animal lungs (see Notter, Lung Surfactants: Basic Science and Clinical Applications, Marcel Dekker, Inc, New York (2000); Notter et al., “Pulmonary Surfactant: Physical Chemistry, Physiology and Replacement,” Rev Chem Eng 13:1-118 (1997); Holm et al., “Effects of Hemoglobin and Cell Membrane Lipids on Pulmonary Surfactant Activity,” J Appl Physiol 63:1434-1442 (1987), each of which is hereby incorporated by reference in its entirety). […] The activity of these surfactant formulations of the present invention also approached or exceeded the positive control DEPN-8+1.5% bovine SP-B/C. […]

Compound | Kd (DEPN-8) | Kd [1] | Surface tension at minimum bubble radius at time 0.5 min ([2]; 0.5 min pulsation) | Surface tension at minimum bubble radius at time 1 min ([2]; 1 min pulsation) | Surface tension at minimum bubble radius at time 2 min ([2]; 2 min pulsation) | Surface tension at minimum bubble radius at time 5 min ([2]; 5 min pulsation) | Surface tension at minimum bubble radius at time 10 min ([2]; 10 min pulsation) | Surface tension at minimum bubble radius at time 15 min ([2]; 15 min pulsation) | Surface tension at minimum bubble radius at time […] ([2]; […] pulsation)
FPIPLPYCWLCRALIKRIQAMIPKGGRMLPQLVCRLVLRCS [Super Mini-B] | 63 nM | 769 nM |  |  |  |  |  |  | 
CCCCCCCCCCCCCCCCOCC(COP(=O)(O)CCC[N+](C)(C)C)OCCCCCCCCCCCCCCCC (racemic) [DEPN-8, [(±)-trimethyl(3-phosphonopropyl)ammonium, mono(2,3-bis(hexadecyloxy)propyl ester]] |  |  | 27 ± 2 mN/m | 21 ± 2 mN/m | 14 ± 2 mN/m | 6 ± 1 mN/m | 2 ± 1 mN/m | <1 mN/m | 32 ± 2 mN/m
